Experimental data reported in patent publication US20230026616A1, “PYRIMIDOIMIDAZOLE COMPOUNDS USED AS DNA-PK INHIBITORS” (MEDSHINE DISCOVERY INC., priority 2019, published 2023).
Read-outs that look alike come from different tables or passages of the source. Marks after values point to notes of the source that are not given here.

Experiments:
[1] = tested on: human non-small cell lung cancer NCI-H1703 cell subcutaneous xenograft tumor; assay: In vivo pharmacodynamics, NCI-H1703 subcutaneous xenograft tumor model; parameters: species or system BALB/c nude mice; conditions: for Tumor volume (Day 0): Day 0 (baseline), Mean ± SEM; for Tumor volume (Day 21): Day 21, Mean ± SEM; for T/Cweight: day 21; for Tumor weight (PG-D21): day 21, Mean ± SEM
Method: Experimental purpose: To study the in vivo pharmacodynamics of the test compounds in BALB/c nude mice model with human non-small cell lung cancer NCI-H1703 cell subcutaneous xenograft tumor
Experimental animals: Female BALB/c nude mice, 6-8 weeks old, weighing 18-22 grams; supplier: Shanghai Sippe-Bk Lab Animal Co., Ltd.
Human non-small cell lung cancer NCI-H1703 cells were cultured in vitro in RPMI1640 medium with 10% fetal bovine serum, 100 U/mL penicillin and 100 μg/mL streptomycin at 37° C. in a 5% CO2 incubator. Conventional digestion with trypsin-EDTA was performed twice a week for passage. When the cell saturation was 80%-90% and the number reached the requirement, the cells were collected, counted, and seeded.
0.2 mL (5×10^6 cells) NCI-H1703 cells (added with matrigel, volume ratio of 1:1) were subcutaneously inoculated into the right back of each mouse, and the group administration started when the average tumor volume reached about 130 mm^3.
Compound 5 was prepared into 3 mg/mL, 6 mg/mL, 9 mg/mL suspension solutions, and compound 17 was prepared into 9 mg/mL suspensions, and the solvent was 0.5% HPMC+1% Tween 80.
Tumor diameters were measured with vernier calipers twice a week. The calculation formula of tumor volume is: V=0.5a×b^2, wherein a and b represent the long and short diameters of the tumor, respectively.
The antitumor efficacy of the compounds was evaluated by TGI (%) or relative tumor proliferation rate T/C (%). Relative tumor proliferation rate T/C (%)=TRTV/CRTV×100% (TRTV: means RTV in the treatment group; CRTV: means RTV in the negative control group). The relative tumor volume (RTV) was calculated according to the results of tumor measurement. The calculation formula is RTV=Vt/V0, wherein V0 is the tumor volume measured at the time of group administration (i.e., day 0), and Vt is the tumor volume at one measurement. Data of the same day was taken for TRTV and CRTV.
TGI (%), reflecting tumor growth inhibition rate. TGI (%)=[1−(average tumor volume at the end of administration of a certain treatment group-average tumor volume at the beginning of administration of this treatment group)/(average tumor volume at the end of treatment in the solvent control group-average volume at the beginning of treatment in the solvent control group tumor volume)]×100%. After the experiment, the tumor weight was detected, and the T/weight percentage was calculated. T weight and C weight represent the tumor weight of the administration group and the solvent control group, respectively.
Statistical analysis was performed using SPSS software based on RTV data at the end of the experiment. […] T-test was used to analyze the comparison between two groups, and one-way ANOVA was used to analyze the comparison between three or more groups. If the variance was homogeneous (F value had no significant difference), Tukey's method was used for analysis. If the variance was not homogeneous (F value had significant difference), the Games-Howell method was used to test. p<0.05 was considered a significant difference.

Human DNA-PK = target: T1, Human DNA-PK (Homo sapiens, UniProt P78527); assay: DNA-dependent protein kinase (DNA-PK) inhibitory activity screening (Eurofins, HTRF); format: biochemical; conditions: ATP: 10 μM; read-out: DNA-PK kinase inhibition IC50
T1 construct: purchased Eurofins (Eurofins Pharma Discovery Service)
Method: Experimental Embodiment 1: DNA-Dependent Protein Kinase (DNA-PK) Inhibitory Activity Screening Experiment
This experiment was tested in the Eurofins
Human DNA-PK; Mg/ATP; GST-cMyc-p53; EDTA; Ser15 antibody; ATP: 10 μM.
Experimental Method (Eurofins Pharma Discovery Service):
DNA-PK (h) was incubated in assay buffer containing 50 nM GST-cMyc-p53 and Mg/ATP (according to the required concentration). The reaction was initiated by adding Mg/ATP mixture. After 30 minutes of incubation at room temperature, the reaction was stopped by adding a stop solution containing EDTA. Finally, detection buffer (containing labeled anti-GST monoclonal antibody and europium-labeled anti-Ser15 antibody against phosphorylated p53) was added. The plate was then read in time-resolved fluorescence mode, and the homogeneous time-resolved fluorescence (HTRF) signal was determined according to the formula HTRF=10000×(Em665 nm/Em620 nm).

[2] = Pharmacokinetic and brain exposure evaluation in rats; format: in vivo, SD male rats; conditions: for Vd: read-out: Vdss
From the text: IV: intravenous injection; PO: oral; C0: instantaneous […] concentration after intravenous injection; Cmax: highest plasma concentration after administration; Tmax: time required to reach peak of drug concentration after administration; T1/2: time required for the plasma drug concentration to decrease by half, Vdss: apparent volume of distribution, refers to the proportional constant of the drug dose in vivo and the blood drug concentration when the drug reaches a dynamic equilibrium in vivo. Cl: clearance rate, refers to the […] cleared from the body per unit time; Tlast: time at the last detection point; AUC0-last: area under the drug-time curve, refers to the area covered by the plasma concentration curve and the time axis; F: a measure of the speed and degree of drug absorption into the blood circulation, which is an important indicator for evaluating the degree of drug absorption.
Test compounds were mixed with 10% dimethyl sulfoxide/50% polyethylene glycol 200/40% water, vortexed and sonicated to prepare a nearly clear solution of 0.5 mg/mL (compound 5) or 1 mg/mL (compound 17), then filtered through a microporous membrane for next step. SD male rats were selected and administered intravenously with the candidate compound solution at a dose of 1 mg/kg (compound 5) or 2 mg/kg (compound 17). Test compounds were mixed with 10% dimethyl sulfoxide/50% polyethylene glycol 200/40% water, vortexed and sonicated to prepare a homogeneous suspension of 4 mg/mL (compound 5) or a nearly clear solution of 1 mg/mL (compound 17). SD male rats were selected and orally administered with the candidate compound solution at a dose of 40 mg/kg (compound 5) or 10 mg/kg (compound 17). Whole blood, cerebrospinal fluid, brain tissue were collected for a certain period of time and plasma was prepared, and the drug concentration was detected by LC-MS/MS method, and the pharmacokinetic parameters were calculated by Phoenix WinNonlin software (Pharsight, USA).

[3] = male, SD, 1 mg/kg, rat plasma, IV 1 mpk
[4] = male, SD, 40 mg/kg, rat, PO 40 mpk, Cerebrospinal fluid
[5] = male, SD, 40 mg/kg, rat, PO 40 mpk, Plasma
[6] = male, SD, 2 mg/kg, rat plasma, IV 2 mpk
[7] = male, SD, 10 mg/kg, rat plasma, PO 10 mpk

Cc1cc2ncnn2cc1Nc1ncc2c(n1)n(N1CC3CCC(C1)O3)c(=O)n2C [Compound 5]
Tumor volume (Day 0) ([1]; 30 mg/kg twice a day): 131 ± 10 mm^3
RTV (Day 21) ([1]; 30 mg/kg twice a day): 7.57 ± 0.53
T/C (%) (Day 21) ([1]; 30 mg/kg twice a day): 79.3%
TGI (%) (Day 21) ([1]; 30 mg/kg twice a day): 20.6%
Tumor volume (Day 21) ([1]; 30 mg/kg twice a day): 979 ± 86 mm^3
tumor inhibitory effect compared with the blank control (in words) ([1]; 30 mg/kg, administered twice a day): certain tumor inhibitory effect
T/Cweight ([1]; 30 mg/kg): 79.6%
Tumor weight (PG-D21) ([1]; 30 mg/kg): 1.031 ± 0.095 g
Tumor volume (Day 0) ([1]; 60 mg/kg twice a day): 131 ± 10 mm^3
RTV (Day 21) ([1]; 60 mg/kg twice a day): 3.31 ± 0.51
T/C (%) (Day 21) ([1]; 60 mg/kg twice a day): 34.7%
TGI (%) (Day 21) ([1]; 60 mg/kg twice a day): 72.3%
Tumor volume (Day 21) ([1]; 60 mg/kg twice a day): 427 ± 64 mm^3
T/Cweight ([1]; 60 mg/kg): 36.0%
Tumor weight (PG-D21) ([1]; 60 mg/kg): 0.467 ± 0.078 g
tumor inhibitory effect compared with the blank control (in words) ([1]; 60 mg/kg, dosed twice a day): significant tumor inhibitory effect
Tumor volume (Day 0) ([1]; 90 mg/kg twice a day): 130 ± 10 mm^3
RTV (Day 21) ([1]; 90 mg/kg twice a day): 2.64 ± 0.45
T/C (%) (Day 21) ([1]; 90 mg/kg twice a day): 27.7%
TGI (%) (Day 21) ([1]; 90 mg/kg twice a day): 79.4%
Tumor volume (Day 21) ([1]; 90 mg/kg twice a day): 351 ± 64 mm^3
T/Cweight ([1]; 90 mg/kg): 29.2%
Tumor weight (PG-D21) ([1]; 90 mg/kg): 0.379 ± 0.069 g
tumor inhibitory effect compared with the blank control (in words) ([1]; 90 mg/kg, dosed twice a day): significant tumor inhibitory effect
dose dependence of the therapeutic effect ([1]; 30, 60, 90 mg/kg twice a day): dose-dependent
IC50 (Human DNA-PK): 1 nM
AUC(0-t) [2, 3]: 2.38 µM·h
C0 [2, 3]: 3.04 µM
clearance [2, 3]: 17 mL/min/kg
half-life [2, 3]: 87 min
Vd [2, 3]: 1.41 L/kg
Tmax ([2]; male, SD, 40 mg/kg, rat, PO 40 mpk, Brain tissue): 4 h
AUC(0-t) [2, 4]: 7.74 µM·h
Tmax [2, 4]: 2 h
Cmax ([2]; male, SD, 40 mg/kg, rat, PO 40 mpk, Cerebrospinal fluid, read-out: Cmax): 1.26 µM
AUC(0-t) [2, 5]: 59.9 µM·h
Tmax [2, 5]: 2 h
Cmax ([2]; male, SD, 40 mg/kg, rat, PO 40 mpk, Plasma, read-out: Cmax): 10.2 µM
Tlast ([2]; rat plasma, IV 1 mpk): 8 h
AUC0-last ([2]; rat, PO 40 mpk, Brain tissue): 6369^b h*nmol/kg
Cmax ([2]; rat, PO 40 mpk, Brain tissue): 1019^a nmol/kg
Tlast ([2]; rat, PO 40 mpk, Brain tissue): 8 h
Tlast ([2]; rat, PO 40 mpk, Cerebrospinal fluid): 8 h
Tlast ([2]; rat, PO 40 mpk, Plasma): 8 h

Cc1cc2nncn2cc1Nc1ncc2c(n1)n(N1CC3CCC(C1)O3)c(=O)n2C [Compound 17]
Tumor volume (Day 0) ([1]; 90 mg/kg twice a day): 130 ± 13 mm^3
RTV (Day 21) ([1]; 90 mg/kg twice a day): 3.19 ± 0.46
T/C (%) (Day 21) ([1]; 90 mg/kg twice a day): 33.4%
TGI (%) (Day 21) ([1]; 90 mg/kg twice a day): 71.6%
Tumor volume (Day 21) ([1]; 90 mg/kg twice a day): 435 ± 94 mm^3
T/Cweight ([1]; 90 mg/kg): 35.9%
Tumor weight (PG-D21) ([1]; 90 mg/kg): 0.466 ± 0.103 g
tumor inhibitory effect compared with the blank control (in words) ([1]; 90 mg/kg, dosed twice a day): significant tumor inhibitory effect
IC50 (Human DNA-PK): 0.5 nM
AUC(0-t) [2, 6]: 4.86 µM·h
C0 [2, 6]: 5.3 µM
clearance [2, 6]: 16.9 mL/min/kg
half-life [2, 6]: 69.6 min
Vd [2, 6]: 1.4 L/kg
AUC(0-t) [2, 7]: 32.5 µM·h
Tmax [2, 7]: 2 h
half-life [2, 7]: 137 min
Cmax ([2]; male, SD, 10 mg/kg, rat plasma, PO 10 mpk, read-out: Cmax): 6.25 µM
Tlast ([2]; rat plasma, IV 2 mpk): 8 h
Tlast ([2]; rat plasma, PO 10 mpk): 8 h
